According to paper PMC7823583, “Discovery of Potent Dual EGFR/HER2 Inhibitors Based on Thiophene Scaffold Targeting H1299 Lung Cancer Cell Line” (Pharmaceuticals, 2020):

tested on: NSCLC cell line H1299; test: In vitro cytotoxic activity against H1299, sulfo-rhodamine B (SRB) assay; conditions: Homo sapiens, NCI-H1299, 48 h, read-out: IC50 against H1299
Method: The potential cytotoxic activity of the target compounds on H1299 lung cancer cell line was tested using sulfo-rhodamine B (SRB) assay according to Skehan method [20]. Single cells were plated in 96-multiwell plates for 24 h before treatment with the compounds. A single concentration of the tested compounds was added to the cell monolayer. Monolayer cell was incubated with the compounds for 48 h at 37 °C and in atmosphere of 5% CO2. After 48 h, cell was fixed, washed and stained with Sulforhodamine-B stain. Acetic acid was then used to wash excess stain and attached stain was recovered with Tris ethylenediaminetetraacetic acid (EDTA) buffer. Color intensity was measured in an enzyme-linked immunosorbent assay (ELISA).

Structure (SMILES)	IC50
Nc1cccc(Nc2nnnc3sc4c(c23)CCC4)c1 [Compound 13a, 3-(5,6-dihydro-7H-cyclopenta[4:5]thieno[2,3-d][1,2,3]triazin-4-ylamino)benzene-1,3-diamine]	28.8 nM
Nc1cccc(Nc2nnnc3sc4c(c23)CCCC4)c1 [Compound 13b, 3-(5,6,7,8-Tetrahydro-7H-cyclohexa[4:5]thieno[2,3-d][1,2,3]triazin-4ylamino)benzene-1,3-diamine]	25 nM
C(=Nc1cccc(Nc2nnnc3sc4c(c23)CCC4)c1)c1ccccc1 [Compound 14a, 3-(5,6-Dihydro-7H-cyclopenta[4:5]thieno[2,3-d][1,2,3]triazin-4-ylamino)-N-benzylidenebenzene-1,3-diamine]	25.7 nM
Oc1ccccc1C=Nc1cccc(Nc2nnnc3sc4c(c23)CCC4)c1 [Compound 15a, 3-(5,6-Dihydro-7H-cyclopenta[4:5]thieno[2,3-d][1,2,3]triazin-4-ylamino)-N-(2-hydroxybenzylidene)benzene-1,3-diamine]	32.8 nM
Oc1ccccc1C=Nc1cccc(Nc2nnnc3sc4c(c23)CCCC4)c1 [Compound 15b, 3-(5,6,7,8-Tetrahydro-7H-cyclohexa[4:5]thieno[2,3-d][1,2,3]triazin-4-ylamino)-N-(2-hydroxybenzylidene)benzene-1,3-diamine]	34 nM
O=[N+]([O-])c1cccc(C=Nc2cccc(Nc3nnnc4sc5c(c34)CCCC5)c2)c1 [Compound 17b, 3-(5,6,7,8-Tetrahydro-7H-cyclohexa[4:5]thieno[2,3-d][1,2,3]triazin-4-ylamino)-N-(3-nitrobenzylidene)benzene-1,3-diamine]	38.1 nM
N#Cc1c(NC(=O)CNc2n[nH]c3ncccc23)sc2c1CCCC2 [Compound 21a, 2-(1H-Pyrazolo[3,4-b]pyridin-3-ylamino)-N-(3-cyano4,5,6,7-tetrahydrobenzo[b]thiophen-2-yl)acetamide]	12.5 nM
Cc1cc(C)c2c(NCC(=O)Nc3sc4c(c3C#N)CCCC4)n[nH]c2n1 [Compound 21b, N-(3-Cyano-4,5,6,7-tetrahydrobenzo[b]thiophen-2-yl)-2-(4,6-dimethyl-1H-pyrazolo[3,4-b]pyridin-3-ylamino)acetamide]	13.7 nM
N#Cc1c(NC(=O)CNc2onc3ncccc23)sc2c1CCCC2 [Compound 23, N-(3-Cyano-4,5,6,7-tetrahydrobenzo[b]thiophen-2-yl)-2-(isoxazolo[3,4-b]pyridin-3-ylamino)acetamide]	18.4 nM
N#Cc1c(NC(=O)CNN=Cc2cccc([N+](=O)[O-])c2)sc2c1CCCC2 [Compound 25a, N-(3-Cyano-4,5,6,7-tetrahydrobenzo[b]thiophen-2-yl)-2-(2-(3-nitrobenzylidene)hydrazinyl)acetamide]	18.5 nM
COc1ccc(C=NNCC(=O)Nc2sc3c(c2C#N)CCCC3)cc1 [Compound 25b, N-(3-Cyano-4,5,6,7-tetrahydrobenzo[b]thiophen-2-yl)-2-(2-(4-methoxybenzylidene)hydrazinyl)acetamide]	18.5 nM

biological target: HER2 (Homo sapiens, UniProt P04626); test: HER2 kinase inhibitory assay (Kinase-Glo Plus luminescence kinase assay); format: biochemical; conditions: read-out: IC50 against HER2
Sequence (P04626 23-1255): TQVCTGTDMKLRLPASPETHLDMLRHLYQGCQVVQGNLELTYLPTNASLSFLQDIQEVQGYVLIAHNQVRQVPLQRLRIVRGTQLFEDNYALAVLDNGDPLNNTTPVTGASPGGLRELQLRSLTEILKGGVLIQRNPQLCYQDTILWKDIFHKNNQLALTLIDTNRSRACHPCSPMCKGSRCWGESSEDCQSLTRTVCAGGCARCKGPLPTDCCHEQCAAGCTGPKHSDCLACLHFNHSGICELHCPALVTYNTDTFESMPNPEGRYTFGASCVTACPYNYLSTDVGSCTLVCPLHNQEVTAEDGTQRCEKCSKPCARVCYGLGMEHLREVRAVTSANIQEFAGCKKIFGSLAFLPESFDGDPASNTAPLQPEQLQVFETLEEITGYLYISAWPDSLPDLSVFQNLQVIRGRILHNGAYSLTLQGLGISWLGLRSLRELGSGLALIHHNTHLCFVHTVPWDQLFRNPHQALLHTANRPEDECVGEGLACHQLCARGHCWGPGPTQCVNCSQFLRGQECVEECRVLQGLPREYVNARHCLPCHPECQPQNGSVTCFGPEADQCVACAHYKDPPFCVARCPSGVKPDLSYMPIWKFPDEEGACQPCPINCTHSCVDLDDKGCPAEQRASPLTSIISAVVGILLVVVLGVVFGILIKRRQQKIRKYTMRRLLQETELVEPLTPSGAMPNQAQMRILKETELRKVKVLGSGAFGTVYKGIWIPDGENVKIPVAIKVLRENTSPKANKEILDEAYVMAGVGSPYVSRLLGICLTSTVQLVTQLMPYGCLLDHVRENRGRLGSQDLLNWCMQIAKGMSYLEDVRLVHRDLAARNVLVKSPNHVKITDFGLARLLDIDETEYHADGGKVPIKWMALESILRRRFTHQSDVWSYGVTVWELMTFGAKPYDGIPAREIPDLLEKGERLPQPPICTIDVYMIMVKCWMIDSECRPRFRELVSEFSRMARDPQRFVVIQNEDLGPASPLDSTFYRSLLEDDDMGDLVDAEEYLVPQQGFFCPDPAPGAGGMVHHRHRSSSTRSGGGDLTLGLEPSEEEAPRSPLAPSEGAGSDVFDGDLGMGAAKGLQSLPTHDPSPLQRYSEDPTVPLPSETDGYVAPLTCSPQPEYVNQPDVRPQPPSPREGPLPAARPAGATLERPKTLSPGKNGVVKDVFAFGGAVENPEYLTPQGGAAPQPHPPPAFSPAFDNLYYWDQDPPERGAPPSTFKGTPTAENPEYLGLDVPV

IC50	Structure (SMILES)
0.14 nM	N#Cc1c(NC(=O)CNc2n[nH]c3ncccc23)sc2c1CCCC2 [Compound 21a, 2-(1H-Pyrazolo[3,4-b]pyridin-3-ylamino)-N-(3-cyano4,5,6,7-tetrahydrobenzo[b]thiophen-2-yl)acetamide]

biological target: EGFR (Homo sapiens, UniProt P00533); test: not given; conditions: earlier study of the group; read-out: IC50 against EGFR; cited from earlier work
Sequence (P00533 25-1210): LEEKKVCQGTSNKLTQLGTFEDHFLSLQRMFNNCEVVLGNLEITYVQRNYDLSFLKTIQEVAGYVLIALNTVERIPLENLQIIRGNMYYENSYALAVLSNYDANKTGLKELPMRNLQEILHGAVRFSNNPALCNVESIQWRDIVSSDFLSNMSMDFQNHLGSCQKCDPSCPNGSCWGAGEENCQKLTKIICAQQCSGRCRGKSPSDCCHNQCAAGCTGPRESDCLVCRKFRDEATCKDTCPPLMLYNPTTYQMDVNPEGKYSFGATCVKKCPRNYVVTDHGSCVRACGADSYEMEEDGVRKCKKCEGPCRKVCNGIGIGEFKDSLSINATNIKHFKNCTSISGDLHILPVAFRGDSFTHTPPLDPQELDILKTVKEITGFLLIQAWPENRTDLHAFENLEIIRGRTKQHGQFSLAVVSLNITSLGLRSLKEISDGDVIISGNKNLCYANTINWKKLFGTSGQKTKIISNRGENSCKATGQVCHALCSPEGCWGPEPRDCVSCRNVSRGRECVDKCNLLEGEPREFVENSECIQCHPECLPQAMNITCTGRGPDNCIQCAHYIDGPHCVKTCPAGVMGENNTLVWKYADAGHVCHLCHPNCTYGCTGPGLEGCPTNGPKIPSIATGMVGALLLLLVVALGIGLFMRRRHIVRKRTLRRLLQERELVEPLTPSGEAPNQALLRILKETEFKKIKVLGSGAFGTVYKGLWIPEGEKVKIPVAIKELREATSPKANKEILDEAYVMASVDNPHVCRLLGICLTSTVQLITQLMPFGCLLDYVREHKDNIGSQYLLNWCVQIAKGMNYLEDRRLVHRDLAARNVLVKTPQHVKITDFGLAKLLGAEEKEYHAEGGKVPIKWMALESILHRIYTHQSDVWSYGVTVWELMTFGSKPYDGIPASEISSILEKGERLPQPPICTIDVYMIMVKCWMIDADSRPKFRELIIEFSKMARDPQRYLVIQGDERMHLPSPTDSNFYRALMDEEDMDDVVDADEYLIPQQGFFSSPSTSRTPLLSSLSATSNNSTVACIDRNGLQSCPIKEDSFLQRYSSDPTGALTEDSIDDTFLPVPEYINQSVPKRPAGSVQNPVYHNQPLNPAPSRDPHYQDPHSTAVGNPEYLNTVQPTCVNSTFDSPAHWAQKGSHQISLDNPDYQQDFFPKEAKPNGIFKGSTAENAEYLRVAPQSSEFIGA

Structure (SMILES)	IC50
Oc1ccc(Nc2nnnc3sc4c(c23)CCC4)cc1 [Compound 8, reference compound]	~38 nM
Nc1cccc(Nc2nnnc3sc4c(c23)CCCC4)c1 [Compound 13b, 3-(5,6,7,8-Tetrahydro-7H-cyclohexa[4:5]thieno[2,3-d][1,2,3]triazin-4ylamino)benzene-1,3-diamine]	~0.33 nM
